Results on 12 compounds are retold here after patent publication US9090586B2, “Heterocyclic compound” (TAKEDA PHARMACEUTICAL COMPANY LIMITED, priority 2010, dated 2015).

In one data set the target is T1, human PDE10A enzyme (Homo sapiens, UniProt Q9Y233).
T1 construct: Human PDE10A full-length gene was transfected into Sf9 or COS-7 cells; His-tag; made in house; host or cells: Sf9 or COS-7 cells
The experiment in a line: PDE10A enzyme activity inhibition test (SPA). It counts as biochemical. To be noted: for inhibition at 0.1 µM: 100 nM compound, read-out: Inhibition rate (%) (100 nM); for IC50: [3H]cGMP substrate. The protocol: Human PDE10A full-length gene was transfected into Sf9 or COS-7 cells, the cells were disrupted and centrifuged, and human PDE10A enzyme was obtained from the residue. The enzyme extracted from Sf9 cells was partially purified using His-tag affinity column. The enzyme was stored at −70° C. until use. The PDE activity was measured using an SPA (Scintillation Proximity Assay) (GE Healthcare). To measure the inhibitory activity of the compound, 10 μL of serially diluted compound was reacted with 20 μL of PDE enzyme in an assay buffer (50 mM HEPES-NaOH, 8.3 mM MgCl2, 1.7 mM EGTA, 0.1% BSA (pH 7.4)) […] at room temperature. The final concentration of DMSO in the reaction mixture was 1 percent. The compounds were evaluated in duplicate in 96-well half-area plates (Corning). To start the reaction, 10 μL of substrate [^3H] cGMP (25 and 50 nM; GE Healthcare and PerkinElmer, respectively) was added to 40 μL. After 60 min of reaction at room temperature, yttrium SPA beads containing zinc sulphate were added (6 mg/mL, 20 μL) to terminate the PDE reaction. After standing still for 1 hr, the measurement was performed using a scintillation counter (PerkinElmer) and the PDE10A enzyme activity inhibition rate was calculated. The inhibition rate was calculated based on the control containing enzyme and DMSO as 0% and the control without enzyme as 100%.

T1 sequence (Q9Y233 267-1055): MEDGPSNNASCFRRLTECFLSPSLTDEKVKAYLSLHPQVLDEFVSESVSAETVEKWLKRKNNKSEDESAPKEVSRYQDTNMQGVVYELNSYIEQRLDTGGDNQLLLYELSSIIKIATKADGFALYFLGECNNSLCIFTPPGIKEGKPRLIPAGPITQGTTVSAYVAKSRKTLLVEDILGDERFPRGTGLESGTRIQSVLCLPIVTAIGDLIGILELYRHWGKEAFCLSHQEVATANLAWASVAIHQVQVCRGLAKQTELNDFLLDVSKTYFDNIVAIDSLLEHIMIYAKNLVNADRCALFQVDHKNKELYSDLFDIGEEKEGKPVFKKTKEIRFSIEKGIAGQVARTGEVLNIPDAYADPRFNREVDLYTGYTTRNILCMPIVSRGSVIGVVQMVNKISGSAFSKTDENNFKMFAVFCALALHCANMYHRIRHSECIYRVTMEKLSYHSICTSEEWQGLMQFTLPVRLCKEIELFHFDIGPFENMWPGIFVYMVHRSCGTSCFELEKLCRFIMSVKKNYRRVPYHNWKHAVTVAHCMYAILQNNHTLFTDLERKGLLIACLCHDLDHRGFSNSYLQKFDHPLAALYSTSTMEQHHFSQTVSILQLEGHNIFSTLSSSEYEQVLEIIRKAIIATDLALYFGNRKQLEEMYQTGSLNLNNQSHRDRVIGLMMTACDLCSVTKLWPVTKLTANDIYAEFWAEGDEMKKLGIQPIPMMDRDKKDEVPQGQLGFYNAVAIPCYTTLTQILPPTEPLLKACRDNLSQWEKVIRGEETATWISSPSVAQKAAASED

The melting point is the temperature, or range, at which the solid turns liquid. `COc1cn(-c2ccc(-n3cccn3)cc2F)nc(-c2ccnn2CC(F)(F)F)c1=O` [Example 6, 1-[2-fluoro-4-(1H-pyrazol-1-yl)phenyl]-5-methoxy-3-[1-(2,2,2-trifluoroethyl)-1H-pyrazol-5-yl]pyridazin-4(1H)-one]: the melting point is 185 to 187 °C. By inhibition is commonly meant the change of the read-out against control, counted positive when it falls. The term IC50 denotes the concentration needed to halve the response being measured. Low readings indicate inhibition by little substance, high ones a need for much substance. As to `COc1cn(-c2ccc3c(c2F)C(C)(C)C(=O)N3CC(F)F)nc(-c2ccnn2-c2ccccc2)c1=O` [Example 19, 1-(2,2-difluoroethyl)-4-fluoro-5-[5-methoxy-4-oxo-3-(1-phenyl-1H-pyrazol-5-yl)pyridazin-1(4H)-yl]-3,3-dimethyl-1,3-dihydro-2H-indol-2-one], at human PDE10A enzyme, the inhibition at 0.1 µM is 102% and the IC50 is no more than 10 nM. On the same counts, the results for `COc1cn(-c2ccc3c(c2F)C(C)(C)C(=O)N3C(C)C)nc(-c2ccnn2-c2ccccc2)c1=O` [Example 48, 4-fluoro-5-[5-methoxy-4-oxo-3-(1-phenyl-1H-pyrazol-5-yl)pyridazin-1(4H)-yl]-3,3-dimethyl-1-(1-methylethyl)-1,3-dihydro-2H-indol-2-one] are 101% and no more than 10 nM. On the same counts, the results for `COc1cn(-c2cnn(CC(C)C)c2)nc(-c2ccnn2-c2ccccc2)c1=O` [Example 42, 5-methoxy-1-[1-(2-methylpropyl)-1H-pyrazol-4-yl]-3-(1-phenyl-1H-pyrazol-5-yl)pyridazin-4(1H)-one] are 100% and no more than 10 nM. Consider `COc1cn(-c2cnn(CC3CC3)c2)nc(-c2ccnn2-c2ccccc2)c1=O` [Example 36, 1-[1-(cyclopropylmethyl)-1H-pyrazol-4-yl]-5-methoxy-3-(1-phenyl-1H-pyrazol-5-yl)pyridazin-4(1H)-one], for which, at human PDE10A enzyme, the inhibition at 0.1 µM was 102% and the IC50 was no more than 10 nM. Take `COc1nc(-n2cc(F)c(F)c2)ccc1-n1cc(OC)c(=O)c(-c2ccnn2-c2ccccc2)n1` [Example 53, 1-[6-(3,4-difluoro-1H-pyrrol-1-yl)-2-methoxypyridin-3-yl]-5-methoxy-3-(1-phenyl-1H-pyrazol-5-yl)pyridazin-4(1H)-one]: at human PDE10A enzyme, the inhibition at 0.1 µM is 97% and the IC50 is no more than 10 nM. For `COc1cn(-c2ccc(-n3cc(F)c(F)c3)cc2O)nc(-c2ccnn2-c2ccccc2)c1=O` [Example 11, 1-[4-(3,4-difluoro-1H-pyrrol-1-yl)-2-hydroxyphenyl]-5-methoxy-3-(1-phenyl-1H-pyrazol-5-yl)pyridazin-4(1H)-one], the melting point was 241 to 243 °C. With `COc1cn(-c2ccc3c(c2F)C2(CCC2)C(=O)N3C(C)C)nc(-c2ccnn2-c2ccccc2)c1=O` [Example 49, 4′-fluoro-5′-[5-methoxy-4-oxo-3-(1-phenyl-1H-pyrazol-5-yl)pyridazin-1(4H)-yl]-1′-(1-methylethyl)spiro[cyclobutane-1,3′-indol]-2′(1′H)-one], at human PDE10A enzyme, the inhibition at 0.1 µM was determined as 101% and the IC50 was no more than 10 nM. For `COc1cn(-c2nccs2)nc(-c2ccnn2-c2ccccc2)c1=O` [Example 27, 5-methoxy-3-(1-phenyl-1H-pyrazol-5-yl)-1-(1,3-thiazol-2-yl)pyridazin-4(1H)-one], at human PDE10A enzyme, the inhibition at 0.1 µM came to 98% and the IC50 is no more than 10 nM. On the same counts, the results for `COc1cn(-c2cccnn2)nc(-c2ccnn2-c2ccccc2)c1=O` [Example 25, 5-methoxy-3-(1-phenyl-1H-pyrazol-5-yl)-4H-1,3′-bipyridazin-4-one] are 88% and 10 to 200 nM. Regarding `COc1cc(N2CC(F)(F)C(F)(F)C2)ccc1-n1cc(OC)c(=O)c(-c2ccnn2-c2ccccc2)n1` [Example 15, 5-methoxy-1-[2-methoxy-4-(3,3,4,4-tetrafluoropyrrolidin-1-yl)phenyl]-3-(1-phenyl-1H-pyrazol-5-yl)pyridazin-4(1H)-one], at human PDE10A enzyme, the inhibition at 0.1 µM was found to be 99% and the half-inhibitory concentration (IC50) was no more than 10 nM. Turning to `COc1cn(-c2ccc3c(c2F)C2(CCC2)C(=O)N3C)nc(-c2ccnn2-c2ccccc2)c1=O` [Example 47, 4′-fluoro-5′-[5-methoxy-4-oxo-3-(1-phenyl-1H-pyrazol-5-yl)pyridazin-1(4H)-yl]-1′-methylspiro[cyclobutane-1,3′-indol]-2′(1′H)-one], at human PDE10A enzyme, the inhibition at 0.1 µM worked out at 101% and the IC50 is no more than 10 nM.
